In publication PMC3754837 (Neuropharmacology, 2013):

Tests used:
[1] = molecular target: T1, h5-HT2C (human 5-HT2C-INI receptor) (Homo sapiens, UniProt P28335); assay: [3H]-inositol phosphate accumulation; format: cell-based
T1 sequence (P28335 33-458): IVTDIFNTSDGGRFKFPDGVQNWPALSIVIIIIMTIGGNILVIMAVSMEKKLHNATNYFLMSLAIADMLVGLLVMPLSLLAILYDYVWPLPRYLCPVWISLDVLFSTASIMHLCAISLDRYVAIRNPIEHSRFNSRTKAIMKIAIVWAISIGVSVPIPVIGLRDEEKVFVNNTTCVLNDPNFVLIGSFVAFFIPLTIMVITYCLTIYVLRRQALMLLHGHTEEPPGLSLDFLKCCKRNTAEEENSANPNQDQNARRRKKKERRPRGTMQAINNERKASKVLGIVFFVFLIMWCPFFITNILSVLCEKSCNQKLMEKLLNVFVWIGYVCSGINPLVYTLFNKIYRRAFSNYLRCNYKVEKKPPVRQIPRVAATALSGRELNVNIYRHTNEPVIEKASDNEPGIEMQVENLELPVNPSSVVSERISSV

[2] = molecular target: T2, m5-HT2C (C57Bl/6 mouse 5-HT2C-VNV receptor) (Mus musculus, UniProt P34968, I157V/I161V); assay: [3H]-inositol phosphate accumulation; format: cell-based
T2 sequence (P34968 33-459 I157V/I161V): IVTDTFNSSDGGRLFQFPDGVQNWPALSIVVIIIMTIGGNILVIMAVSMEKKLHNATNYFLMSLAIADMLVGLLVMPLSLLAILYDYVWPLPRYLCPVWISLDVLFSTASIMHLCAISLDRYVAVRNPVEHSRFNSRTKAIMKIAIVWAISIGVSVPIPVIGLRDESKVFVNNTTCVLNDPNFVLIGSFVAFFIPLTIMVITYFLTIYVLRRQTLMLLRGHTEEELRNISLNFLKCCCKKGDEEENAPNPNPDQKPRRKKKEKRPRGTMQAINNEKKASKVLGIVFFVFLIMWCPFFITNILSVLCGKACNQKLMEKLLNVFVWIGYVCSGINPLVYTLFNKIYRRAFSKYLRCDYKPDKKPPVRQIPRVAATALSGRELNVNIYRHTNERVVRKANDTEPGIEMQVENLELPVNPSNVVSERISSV

[3] = molecular target: T3, m5-HT2A (C57Bl/6 mouse 5-HT2A receptor) (Mus musculus, UniProt P35363); assay: [3H]-inositol phosphate accumulation; format: cell-based
[4] = molecular target: T3, m5-HT2A (C57Bl/6 mouse 5-HT2A receptor); assay: [3H]-ketanserin competition, HEK-293 membranes; format: binding
[5] = molecular target: T1, h5-HT2C (human 5-HT2C-INI receptor); assay: biochemical; format: binding
[6] = molecular target: T2, m5-HT2C (C57Bl/6 mouse 5-HT2C-VNV receptor); assay: [3H]-mesulergine competition, HEK-293 membranes; format: binding
[7] = molecular target: T4, h5-HT2A (human 5-HT2A receptor) (Homo sapiens, UniProt P28223); assay: [3H]-inositol phosphate accumulation; format: cell-based
[8] = molecular target: T4, h5-HT2A (human 5-HT2A receptor); assay: [3H]-ketanserin competition, HEK-293 membranes; format: binding
[9] = molecular target: T3, m5-HT2A (C57Bl/6 mouse 5-HT2A receptor); assay: saturation radioligand binding, HEK-293 membranes
[10] = molecular target: T2, m5-HT2C (C57Bl/6 mouse 5-HT2C-VNV receptor); assay: saturation radioligand binding, HEK-293 membranes

T4 sequence (P28223 whole entry): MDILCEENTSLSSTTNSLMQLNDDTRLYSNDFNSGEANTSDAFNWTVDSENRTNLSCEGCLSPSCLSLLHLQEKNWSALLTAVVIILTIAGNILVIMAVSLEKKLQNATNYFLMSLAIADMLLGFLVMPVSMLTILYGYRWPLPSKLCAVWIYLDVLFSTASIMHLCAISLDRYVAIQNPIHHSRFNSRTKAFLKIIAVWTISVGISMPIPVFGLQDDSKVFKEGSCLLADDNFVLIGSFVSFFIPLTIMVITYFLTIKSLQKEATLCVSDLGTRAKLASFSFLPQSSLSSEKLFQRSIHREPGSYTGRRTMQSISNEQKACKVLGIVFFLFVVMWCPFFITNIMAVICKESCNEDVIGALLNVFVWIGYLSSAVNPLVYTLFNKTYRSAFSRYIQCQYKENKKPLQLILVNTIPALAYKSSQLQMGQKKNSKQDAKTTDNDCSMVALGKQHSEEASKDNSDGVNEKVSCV
T3 sequence (P35363 whole entry): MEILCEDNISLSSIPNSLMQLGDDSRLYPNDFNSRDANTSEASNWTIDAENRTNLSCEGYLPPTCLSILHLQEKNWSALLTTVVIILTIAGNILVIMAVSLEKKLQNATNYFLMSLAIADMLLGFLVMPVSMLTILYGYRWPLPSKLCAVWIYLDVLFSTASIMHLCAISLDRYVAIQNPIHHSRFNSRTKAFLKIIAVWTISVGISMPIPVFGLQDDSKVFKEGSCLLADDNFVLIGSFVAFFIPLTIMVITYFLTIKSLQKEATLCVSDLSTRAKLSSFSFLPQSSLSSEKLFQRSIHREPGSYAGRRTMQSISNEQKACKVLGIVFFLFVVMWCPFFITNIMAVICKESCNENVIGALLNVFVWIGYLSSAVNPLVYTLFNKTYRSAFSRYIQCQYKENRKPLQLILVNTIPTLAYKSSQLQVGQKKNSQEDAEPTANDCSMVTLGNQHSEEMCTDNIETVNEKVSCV

SMILES	EC50 [1]	EC50 [2]	EC50 [3]	Ki [4]	Ki [5]	Ki [6]	EC50 [7]	Ki [8]	Kd [9]	Kd [10]
COc1cc(CC(C)N)c(OC)cc1I (racemic) [(±)-DOI]	5.5 nM	3.4 nM	2.6 nM	4 nM	19.1 nM	46.7 nM				
CN(C)[C@H]1Cc2ccccc2[C@H](c2ccccc2)C1 [(+)-PAT]		2110 nM	352 nM	332 nM		1730 nM	233 nM	463 nM		
CN(C)[C@@H]1Cc2ccccc2[C@@H](c2ccccc2)C1 [(−)-PAT]		39 nM		116 nM		53 nM		102 nM		
Cc1ccc([C@H]2C[C@H](N(C)C)Cc3ccccc32)cc1 [Methyl-PAT, (−)-(2S, 4R)-trans-4-(4′-methyl)-N,N-dimethylaminotetralin]	1120 nM	808 nM		326 nM	128 nM	868 nM		179 nM		
Cn1ccc2cc3c(cc21)CCN3C(=O)Nc1cccnc1 [SB-206553]				342 nM				676 nM		
Cc1cc2c(cc1Cl)N(C(=O)Nc1ccc(Oc3cccnc3C)nc1)CC2 [SB-242084]				96 nM	1.5 nM	0.1 nM		146 nM		
O=C(c1ccc(F)cc1)C1CCN(CCn2c(=O)[nH]c3ccccc3c2=O)CC1 [[^3H]-ketanserin]									0.92 nM	
CN1C[C@@H](NS(=O)(=O)N(C)C)C[C@@H]2c3cccc4c3c(cn4C)C[C@H]21 [[^3H]-mesulergine]										2.2 nM
